Key:
[1] = molecular target: Human Cbl-b (residues 40-426) (Homo sapiens (Human), UniProt Q13191); assay: Cbl-b SPR assay; assay type: binding; conditions: for Fold of selectivity: C-cbl SPR Kd vs Cbl-b SPR Kd; for Kd: SPR, 20° C.
Summary of the method: (§1)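 Binding was measured by SPR and fitted to a 1:1 model from multi-cycle kinetics with double referencing, 6 concentrations in 2-fold dilution. Alternatively, single-cycle titrations up to 500 nM (120 s contact) were fitted with kd fixed from a single-exponential fit of chaser-measured % compound bound versus time.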

c-Cbl (residues 47-435) = c-Cbl (residues 47-435) (Homo sapiens (Human), UniProt P22681); assay: c-Cbl SPR assay; assay type: binding; conditions: 20° C.
c-Cbl (residues 47-435), sequence (P22681 47-435): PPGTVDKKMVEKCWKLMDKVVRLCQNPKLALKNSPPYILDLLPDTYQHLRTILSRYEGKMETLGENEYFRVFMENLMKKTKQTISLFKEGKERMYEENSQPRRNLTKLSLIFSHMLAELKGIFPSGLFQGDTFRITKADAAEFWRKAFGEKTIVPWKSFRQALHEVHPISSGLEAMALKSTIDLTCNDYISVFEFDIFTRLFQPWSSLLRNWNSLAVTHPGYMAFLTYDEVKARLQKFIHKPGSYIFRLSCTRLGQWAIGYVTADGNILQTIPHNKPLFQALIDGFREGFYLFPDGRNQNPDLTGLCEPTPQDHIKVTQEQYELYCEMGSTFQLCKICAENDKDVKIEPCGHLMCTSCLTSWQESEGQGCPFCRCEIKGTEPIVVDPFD
Summary of the method: as §1

c-Cbl = c-Cbl (Homo sapiens (Human), UniProt P22681); assay: C-Cbl LCK Ub TR-FRET assay (C-cbl Lck HTRF); assay type: biochemical
c-Cbl, sequence (P22681 47-435): as above
Summary of the method: (§2)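 Detection reagents added, brief spin, 20 min RT. IC50 fit normalized to no-LCK (low) and DMSO (high) controls.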

Cbl-b = Cbl-b (Homo sapiens (Human), UniProt Q13191); assay: Cbl-b LCK Ub TR-FRET assay (Cbl-b Lck HTRF); assay type: biochemical; conditions: for IC50: Cbl-b LCK Ub TR-FRET; for fold-selectivity (Cbl-b over C-cbl) / (fold-selectivity) Cbl-b and C-Cbl Selectivity: ratio C-cbl Lck HTRF IC50 / Cbl-b Lck HTRF IC50
Cbl-b, sequence (Q13191 40-426): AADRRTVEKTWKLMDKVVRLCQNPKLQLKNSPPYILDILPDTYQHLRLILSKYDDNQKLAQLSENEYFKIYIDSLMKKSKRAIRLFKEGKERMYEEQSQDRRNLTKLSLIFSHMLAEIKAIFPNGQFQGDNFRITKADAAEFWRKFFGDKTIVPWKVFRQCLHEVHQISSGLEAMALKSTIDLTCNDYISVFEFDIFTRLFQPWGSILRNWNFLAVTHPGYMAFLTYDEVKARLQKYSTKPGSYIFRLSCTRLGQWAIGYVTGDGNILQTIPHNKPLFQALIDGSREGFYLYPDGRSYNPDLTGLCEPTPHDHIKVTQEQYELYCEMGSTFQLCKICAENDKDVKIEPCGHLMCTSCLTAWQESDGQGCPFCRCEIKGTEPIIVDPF
Summary of the method: as §2

Human Cbl-b (residues 40-426), sequence (Q13191 40-426): as above

Fold of selectivity [1]	Kd [1]	Kd (c-Cbl (residues 47-435))	IC50 (c-Cbl)	IC50 (Cbl-b)	fold-selectivity (Cbl-b over C-cbl) (Cbl-b)	IC50 (Cbl-b; Example 121)	(fold-selectivity) Cbl-b and C-Cbl Selectivity (Cbl-b)	Structure (SMILES)
24×	82 nM	1900 nM	1100 nM	110 nM	10x	–	–	Cn1cnnc1[C@]1(c2cccc(N3Cc4c(cc(CNC5(C)CCC5)cc4C(F)(F)F)C3=O)c2)C[C@]2(CCCO2)C1 [Compound 340, 2-(3-((2s, 4r)-2-(4-methyl-4H-1,2,4-triazol-3-yl)-5-oxaspiro[3.4]octan-2-yl)phenyl)-6-(((1-methylcyclobutyl)amino)methyl)-4-(trifluoromethyl) isoindolin-1-one]
11×	11 nM	120 nM	100 nM	13 nM	8.4x	–	–	Cn1cnnc1[C@]1(c2cccc(N3Cc4c(cc(CNC5(C)CCC5)cc4C(F)(F)F)C3=O)c2)C[C@@]2(CCCO2)C1 [Compound 341, 2-(3-((2r, 4s)-2-(4-methyl-4H-1,2,4-triazol-3-yl)-5-oxaspiro [3.4]octan-2-yl)phenyl)-6-(((1-methylcyclobutyl)amino)methyl)-4-(trifluoromethyl) isoindolin-1-one]
5.4×	35 nM	200 nM	190 nM	40 nM	4.6x	–	–	CC(=O)[C@H]1C[C@@](c2cccc(N3Cc4c(cc(CNC5(C)CCC5)cc4C(F)(F)F)C3=O)c2)(c2nncn2C)C1 [Compound 346, 2-(3-((1s,3s)-3-acetyl-1-(4-methyl-4H-1,2,4-triazol-3-yl)cyclobutyl)phenyl)-6-(((1-methylcyclobutyl)amino)methyl)-4-(trifluoromethyl)isoindolin-1-one]
11×	3 nM	33 nM	30 nM	10 nM	3x	–	–	CC(=O)[C@H]1C[C@](c2cccc(N3Cc4c(cc(CNC5(C)CCC5)cc4C(F)(F)F)C3=O)c2)(c2nncn2C)C1 [Compound 347, 2-(3-((1r,3r)-3-acetyl-1-(4-methyl-4H-1,2,4-triazol-3-yl)cyclobutyl)phenyl)-6-(((1-methylcyclobutyl)amino)methyl)-4-(trifluoromethyl)isoindolin-1-one]
9×	4.2 nM	39 nM	42 nM	13 nM	3.2x	–	–	Cn1cnnc1[C@]1(c2cccc(N3Cc4c(cc(CNC5(C)CCC5)cc4C(F)(F)F)C3=O)c2)C[C@H](OCF)C1 [Compound 370, 2-(3-((1s,3s)-3-(fluoromethoxy)-1-(4-methyl-4H-1,2,4-triazol-3-yl)cyclobutyl)phenyl)-6-(((1-methylcyclobutyl)amino)methyl)-4-(trifluoromethyl)isoindolin-1-one]
7.8×	48 nM	380 nM	42 nM	8.3 nM	5.0x	–	–	Cn1cnnc1[C@]1(c2cccc(N3Cc4c(cc(CNC5(C)CCC5)cc4C(F)(F)F)C3=O)c2)C[C@@H](OCF)C1 [Compound 371, 2-(3-((1r,3r)-3-(fluoromethoxy)-1-(4-methyl-4H-1,2,4-triazol-3-yl)cyclobutyl)phenyl)-6-(((1-methylcyclobutyl)amino)methyl)-4-(trifluoromethyl)isoindolin-1-one]
11×	0.95 nM	10 nM	14 nM	6.6 nM	2.0x	–	–	CC[C@H]1C[C@@](c2cccc(N3Cc4c(Cl)cc(CNC5(C)CCC5)cc4C3=O)c2)(c2nncn2C)C1 [Compound 374, 4-chloro-2-(3-((1r,3s)-3-ethyl-1-(4-methyl-4H-1,2,4-triazol-3-yl)cyclobutyl)phenyl)-6-(((1-methylcyclobutyl)amino)methyl)isoindolin-1-one]
11×	1 nM	11 nM	16 nM	6.4 nM	2.5x	–	–	CC[C@H]1C[C@](c2cccc(N3Cc4c(Cl)cc(CNC5(C)CCC5)cc4C3=O)c2)(c2nncn2C)C1 [Compound 375, 4-chloro-2-(3-((1s,3r)-3-ethyl-1-(4-methyl-4H-1,2,4-triazol-3-yl)cyclobutyl)phenyl)-6-(((1-methylcyclobutyl)amino)methyl)isoindolin-1-one]
2.4×	110 nM	320 nM	290 nM	110 nM	2.6x	–	–	CCCN1CC(c2cc3c(c(C(F)(F)F)c2)CN(c2cccc([C@H](c4nncn4C)C4COC4)c2)C3=O)C1 [Compound 386, (R)-2-(3-((4-methyl-4H-1,2,4-triazol-3-yl)(oxetan-3-yl)methyl)phenyl)-6-(1-propylazetidin-3-yl)-4-(trifluoromethyl)isoindolin-1-one]
7.7×	9.4 nM	75 nM	77 nM	–	–	15 nM	5.3x	Cn1cnnc1[C@]1(c2cccc(N3Cc4c(cc(CNC5(C)CCC5)cc4C(F)(F)F)C3=O)c2)C[C@@](O)(C(F)F)C1 [Compound 405, 2-(3-((1s,3s)-3-(difluoromethyl)-3-hydroxy-1-(4-methyl-4H-1,2,4-triazol-3-yl)cyclobutyl)phenyl)-6-(((1-methylcyclobutyl)amino)methyl)-4-(trifluoromethyl)isoindolin-1-one]
7.7×	10 nM	77 nM	50 nM	–	–	9.4 nM	5.2x	CO[C@H]1C[C@](c2cccc(N3Cc4c(cc(CNC5CCC5)cc4C(F)(F)F)C3=O)c2)(c2nncn2C)C1 [Compound 414, 6-((cyclobutylamino)methyl)-2-(3-((1r,3r)-3-methoxy-1-(4-methyl-4H-1,2,4-triazol-3-yl)cyclobutyl)phenyl)-4-(trifluoromethyl)isoindolin-1-one]
13×	5 nM	63 nM	48 nM	–	–	11 nM	4.2x	CO[C@H]1C[C@](c2cccc(N3Cc4c(cc(CNCC5CC5)cc4C(F)(F)F)C3=O)c2)(c2nncn2C)C1 [Compound 415, 6-(((cyclopropylmethyl)amino)methyl)-2-(3-((1r,3r)-3-methoxy-1-(4-methyl-4H-1,2,4-triazol-3-yl)cyclobutyl)phenyl)-4-(trifluoromethyl)isoindolin-1-one]
13×	0.87 nM	12 nM	11 nM	–	–	7.5 nM	1.5x	CO[C@H]1C[C@](c2cccc(N3Cc4c(cc(CNCC5CCC5)cc4C(F)(F)F)C3=O)c2)(c2nncn2C)C1 [Compound 416, 6-(((cyclobutylmethyl)amino)methyl)-2-(3-((1r,3r)-3-methoxy-1-(4-methyl-4H-1,2,4-triazol-3-yl)cyclobutyl)phenyl)-4-(trifluoromethyl)isoindolin-1-one]
7.2×	1100 nM	8600 nM	3200 nM	–	–	480 nM	6.6x	CO[C@H]1C[C@](c2cccc(N3Cc4c(cc(CN5CCOCC5)cc4C(F)(F)F)C3=O)c2)(c2nncn2C)C1 [Compound 417, 2-(3-((1r,3r)-3-methoxy-1-(4-methyl-4H-1,2,4-triazol-3-yl)cyclobutyl)phenyl)-6-(morpholinomethyl)-4-(trifluoromethyl)isoindolin-1-one]
8.7×	140 nM	1200 nM	1400 nM	–	–	180 nM	7.3x	CO[C@H]1C[C@](c2cccc(N3Cc4c(cc(CN5CCCC5)cc4C(F)(F)F)C3=O)c2)(c2nncn2C)C1 [Compound 418, 2-(3-((1r,3r)-3-methoxy-1-(4-methyl-4H-1,2,4-triazol-3-yl)cyclobutyl)phenyl)-6-(pyrrolidin-1-ylmethyl)-4-(trifluoromethyl)isoindolin-1-one]
8.2×	32 nM	240 nM	190 nM	–	–	29 nM	6.7x	CO[C@H]1C[C@](c2cccc(N3Cc4c(cc(CNC(C)C)cc4C(F)(F)F)C3=O)c2)(c2nncn2C)C1 [Compound 419, 6-((isopropylamino)methyl)-2-(3-((1r,3r)-3-methoxy-1-(4-methyl-4H-1,2,4-triazol-3-yl)cyclobutyl)phenyl)-4-(trifluoromethyl)isoindolin-1-one]
14×	1.7 nM	24 nM	17 nM	–	–	6.5 nM	2.6x	CO[C@H]1C[C@](c2cccc(N3Cc4c(cc(CNCC(C)C)cc4C(F)(F)F)C3=O)c2)(c2nncn2C)C1 [Compound 421, 6-((isobutylamino)methyl)-2-(3-((1r,3r)-3-methoxy-1-(4-methyl-4H-1,2,4-triazol-3-yl)cyclobutyl)phenyl)-4-(trifluoromethyl)isoindolin-1-one]

— US12187709B2 (Genentech, Inc., priority 2021, dated 2025)
